Data set [1] in a line: Estimation of plasma half-life. The format is in vivo. The note with it: rat, typically determined following intravenous administration, semilogarithmic plot, read-out: t½ (half life in plasma) (converted). From the text: Estimation of Plasma Half-Life
The plasma half-life is the time taken for the concentration of compound in the plasma to decline to half of its original value. This is typically determined following intravenous administration of the test compound, followed by measurement of the compound concentrations in plasma samples as described above. The plasma half-life is estimated from a semilogarithmic plot, plotting the log of the plasma concentration (lnCp) against sample time (t, linear). The apparent first-order elimination rate constant, k, is equal to the slope of the line, and the elimination half-life (t1/2) is […] (Gibaldi, M and Perrier, D, 1975 Pharmacokinetics, Marcel Dekker, New York): [formula]

Data set [2] in a line: Plasma protein binding by equilibrium dialysis. Conditions: rat, 18 hours at 37° C., plasma vs isotonic phosphate buffer pH 7.4, read-out: % free in plasma. The class given is in vitro ADME. As to the method: Measurements of Plasma Protein Binding of Compounds
The plasma protein binding of compounds was measured using the equilibrium dialysis technique (W. Lindner et al, J. Chromatography, 1996, 677, 1-28). Compound was dialysed at a concentration of 20 μM for 18 hours at 37° C. with plasma and isotonic phosphate buffer pH 7.4 (1 ml of each in the dialysis cell). A Spectrum® 20-cell equilibrium dialyser was used together with Teflon, semi-micro dialysis cells and Spectra/Por®2 membrane discs with a molecular weight cut off 12-14000 Dalton, 47 mm (supplied by PerBio Science UK Ltd, Tattenhall, Cheshire). Plasma and buffer samples are removed following dialysis and analysed using HPLCUV/MS (high performance liquid chromatography with UV and mass spec detection) to give the % free level in plasma.
(In general: Equilibrium dialysis compares concentrations on both sides of a semipermeable membrane.)

Another data set deals with T1, glucokinase (GLK) (Homo sapiens, UniProt P35557).
T1 construct: 6-His (N); made in house; host or cells: E. coli BL21 (vector pTB375NBSE)
T1 sequence (P35557 1-466 isoform P35557-2): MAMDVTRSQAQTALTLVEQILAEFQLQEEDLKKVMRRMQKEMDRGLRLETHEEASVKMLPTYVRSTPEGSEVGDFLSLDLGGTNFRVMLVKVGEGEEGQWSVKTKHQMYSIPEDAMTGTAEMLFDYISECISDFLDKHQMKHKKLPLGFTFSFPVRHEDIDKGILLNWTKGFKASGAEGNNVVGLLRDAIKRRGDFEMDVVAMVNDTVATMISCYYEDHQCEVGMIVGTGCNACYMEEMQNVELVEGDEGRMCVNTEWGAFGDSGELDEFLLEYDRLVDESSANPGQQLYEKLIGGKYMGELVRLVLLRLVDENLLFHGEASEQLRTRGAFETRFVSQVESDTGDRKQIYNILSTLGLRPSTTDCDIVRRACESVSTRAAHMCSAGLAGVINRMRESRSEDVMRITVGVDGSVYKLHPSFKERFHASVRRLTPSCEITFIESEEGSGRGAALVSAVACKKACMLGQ
Briefly: Enzymatic activity of GLK (G-6-P dehydrogenase, NADP/NADPH coupled assay), activation by compounds. The note with it: read-out: EC50 (activating activity for glucokinase). The class given is biochemical. As to the method:
(1) Enzymatic activity of GLK may be measured by incubating GLK, ATP and glucose. The rate of product formation may be determined by coupling the assay to a G-6-P dehydrogenase, NADP/NADPH system and measuring the linear increase in optical density at 340 nm (atschinsky et al 1993). Activation of GLK by compounds can be assessed using this assay in the presence or absence of GLKRP (GLK regulatory protein) as described in Brocklehurst et al (Diabetes 2004, 53, 535-541).
GLK was expressed from the vector pTB375NBSE in E.coli BL21 cells, producing a recombinant protein containing a 6-His tag immediately adjacent to the N-terminal methionine. Alternatively, another suitable vector is pET21(+)DNA, Novagen, Cat number 697703. The 6-His tag was used to allow purification of the recombinant protein on a column packed with nickel-nitrilotriacetic acid agarose purchased from Qiagen (cat no 30250).

A short description of data set [3]: Plasma levels following oral administration to rats. The format is in vivo. The note with it: rat, oral gavage, normalised dose of 1 mg of compound per kilogram of rat body weight. As to the method: Measurement of Plasma Levels and Plasma Protein Binding Following Oral Administration to Rats
Planetary Milled compounds [15 mins, 500 rpm, 5 Zirconium Balls, in a Puluerisette 7 Mill (Glen Creston Ltd, Stanmore, Middlesex, UK)] were suspended in 0.5% HPMC Tween and dosed to High Fat Fed (Research Diets, D12451, ad lib feeding 14 days) Female Alderley Park Zucker or Alderley Park Wistar rats at rate of 5 mls/kg, at doses between 0.3 and 10 mg/kg by oral gavage.
Samples of plasma were obtained either by conscious blood sampling or terminal blood sampling as follows:
Conscious blood sampling (for compound level or blood chemistry)—Intravenous blood samples were taken from tail vein using 600 μL Starstedt Multivette (EDTA) and 22 G needle at the required time point. […]
The reconstituted samples were then analysed using high performance liquid chromatography with tandem mass spectrometry detection (HPLC-MS-MS)”. […]
The concentration of test samples was determined from the ratio of the peak height of the test sample to the peak height of the internal standard. The concentration of the test sample was calculated with reference to a standard curve relating the ratio to the concentration prepared by using known concentrations of test sample added to samples of rat plasma using (3-isopropoxy-5-benzyoxy-benzoyl)amino pyridine 3-carboxylic acid as an internal standard, treated as described above.

The term half-life denotes the time in which the quantity being followed falls by half. By EC50 is commonly meant the concentration that produces a half-maximal response.

Molecules are shown by their SMILES.

For `COC[C@H](C)Oc1cc(Oc2cccc(C)c2)cc(C(=O)Nc2ccc(C(=O)O)cn2)c1` [Example 1, 6-[3-{(1S)-1-methyl-2-methoxy-ethoxy}-5-{3-methylphenoxy}phenylcarbonylamino]pyridine-3-carboxylic acid], the half-life in data set [1] is 6.4 h. The fraction unbound at 18 h, 20 μM in data set [2] came to 0.0076. In addition, on glucokinase (GLK), the half-maximal effective concentration (EC50) stood at 110 nM. Moreover, in data set [3], the “Peak Blood levels (including both bound and free)” value amounted to 2.06 µM.

The values are drawn from patent publication US20070255062A1, “Benzoyl Amino Pyridyl Carboxylic Acid Derivatives Useful as Glucokinase (Glk) Activators” (priority 2003, published 2007).
